Data on one compound can be found in patent US20040038824A1, “Agrochemical composition” (priority 2000, published 2004).

For this experiment, the system named is Wheat. As to the kind of experiment: Greenhouse test of the safener's protective action on wheat against herbicide damage (post-emergence tank mix). In kind it is in vivo. The conditions noted are these: 2- to 3-leaf stage, tank mix with herbicide propynyl (R)-2[4-[(5-chloro-3-fluoro-2-pyridynyl]oxy-phenoxy]propanoate, 20 days post-application. The text has this: Wheat seeds are sown in the greenhouse in plastic pots comprising 0.5 l of garden soil.

Regarding `CCCCCC(C)OC(=O)COc1ccc(Cl)c2cccnc12` (stereo not shown) [safener of the formula I, 1-methylhexyl (5-chloroquinolin-8-yloxy)acetate tetrahydrate], the “protective action of the safener in comparison with the plants treated with the herbicide only” value is “very effective”.
